Experiment in all cases: growth of human tumour cells (NCI), 48 h
For test [1], the system named is SF-539 CNS.
In test [2] the test system is SK-MEL-28 melanoma.
For test [3], the system named is OVCAR-4 ovarian.
In test [4] the test system is MOLT-4 leukemia.
The subject of test [5] is NCI-H23 lung.
For test [6], the system named is U251 CNS.
Test [7] deals with MDA-MB-435.
Test [8] has as its system T-47D breast.
Test [9] deals with PC-3 prostate.
Test [10] concerns HCC-2998 colon.

Several values for one entry are separate records, joined by “and”; a condition that tells them apart may be missing. Identical values can stand only once.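 How tested: cells in 96-well plates exposed to compound for 48 hours at five concentrations. GI50: concentration for 50% inhibition of growth. TGI denotes the concentration required for complete inhibition of growth.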 A value given as a limit tells only on which side of the number the result lay.

With `O=C(c1ccccc1)n1cc(/C=C/[N+](=O)[O-])c2ccccc21`, the TGI was found to be 46.4 µM in test [1]; 33.6 µM in [2]; 77.3 µM in test [3]; 40.3 µM in test [4]; 37.6 µM in test [5]; 33.3 µM in test [6].

Regarding `COc1ccc2nc3cc([N+](=O)[O-])ccc3c(NCCO)c2c1`, the GI50 in test [7] is 2.12 µM; in [1] it was 3.35 µM; in test [2], 5.41 µM; in test [3] it was 1.77 µM; in test [4], 1.14 µM; in [5] it was 2.68 µM. In addition, the GI50 in test [6] is 1.44 µM; in test [8], 0.539 µM. The TGI is 5.09 µM in test [7]; 13 µM in test [1]; 3.99 µM in test [3]; 6.34 µM in test [4]; 9.59 µM in [5]; 4.65 µM in [8]. This compound returned a TGI in test [9] of 30 µM.

Turning to `O=c1cccccc1[O-].O=c1cccccc1[O-].O=c1cccccc1[O-].[Nd+3]`, the GI50 in test [1] is 19.7 µM; in test [6], 38.7 µM. Further, the TGI in test [1] was 74.9 µM; in [10], more than 100 µM; in test [3], more than 100 µM; in [4] it was more than 100 µM; in test [5], more than 100 µM; in [6], more than 100 µM.

For `CCCCCCCCCCCCC(O)C1CCC(C(O)CCCCC(O)CCCCCC2CC(CC(C)=O)C(=O)O2)O1` (stereo unspecified), the GI50 is 2.36 µM in [1]; 2.85 µM in [2]; 1.94 µM and 2.05 µM in test [4]. The TGI was determined as 21.1 µM in [1]; 16.3 µM in [10]; 14 µM in test [2]; 19.1 µM in test [3]; 35 µM in [4]; 13.6 µM in test [5]. For the same compound, the TGI in test [6] worked out at 18.2 µM; in [9], 4.24 µM.

Take `CCOc1cc(Cl)c(C(C)NC(=O)c2cccc(OC)c2)cc1OCC` (stereo unspecified): the GI50 in test [1] was 5.01 µM; in [10], 28.8 µM; in test [2], 16.5 µM; in test [3], 17.9 µM; in test [4] it was 5.91 µM; in test [5], 21.7 µM. Besides, the values for the GI50 in test [6], in test [8] and in [9] were 8.18 µM, 7.06 µM and 15.1 µM, respectively. Also, the TGI in [1] is 34.3 µM; in test [10], more than 100 µM; in test [2] it was more than 100 µM; in [3], 99.4 µM; in [4], more than 100 µM; in test [5], more than 100 µM. For the same compound, the TGI in test [6], in test [8] and in test [9] was more than 100 µM each time.

For `CCN1CCN(Cc2ccc(NC(=O)Nc3nc(-c4cc(OC)c(OC)c(OC)c4)cs3)cc2C(F)(F)F)CC1`, the GI50 in [7] is 1.5 µM; in test [1] it was 1.69 µM; in test [10], 1.8 µM; in [2], 1.65 µM; in [3] it was 1.47 µM; in test [4], 1.29 µM. Moreover, the figures for the GI50 in test [5], in test [6] and in test [9] were 1.69 µM, 1.37 µM and 1.64 µM, respectively. The TGI in test [7] came to 2.82 µM; in test [1], 3.12 µM; in [10] it was 3.4 µM; in [2] it was 3 µM; in [3], 5.13 µM; in test [4] it was 3.69 µM. Also, the TGI in [5] worked out at 3.59 µM; in test [6], 2.81 µM; in test [9], 6.99 µM.

`Cc1ccccc1N(CCC#N)C1=NN(C(=O)CC(=O)Nc2ccc(Cl)cc2)C(c2ccccc2)C1` (stereo unspecified): the TGI in test [1], in test [10], in test [2], in [3], in test [4] and in [5] was more than 100 µM each time. The TGI in test [6] was more than 100 µM.

Regarding `CC(=O)OC(COc1ccc2c(c1)[n+]([O-])nc(N)[n+]2[O-])CN1CCCCC1` (stereo unspecified), the TGI in [7] was more than 100 µM; in [1], 39 µM; in [10] it was 22.5 µM; in test [2] it was more than 100 µM; in [3], more than 100 µM; in [4], 14.8 µM. The TGI in test [5] was 47.9 µM; in [6] it was 43 µM.

As for `O=C(O)CN1C(=O)OC(c2ccccc2)C1=O` (stereo unspecified), the TGI in [7], in test [1], in test [2], in [3], in test [4] and in test [5] was more than 100 µM throughout. Also, the TGI in [6], in test [8] and in test [9] was more than 100 µM in each case.

Regarding `CC(=O)Oc1ccc2c(=O)c(C(C)=O)coc2c1`, the TGI in test [1], in test [2], in test [3], in [4], in [5] and in test [6] was more than 100 µM throughout.

On to `COC(=O)C1C(C(=O)O)C2(c3ccccc3)C(=O)C1(c1ccccc1)C(c1ccc(OC)cc1)=C2c1ccc(OC)cc1` (stereo unspecified), for which the GI50 in test [7] was 28.8 µM; in test [1], 17.7 µM; in test [10], 13.9 µM; in test [3], 19.7 µM; in [4], 18 µM; in [5] it was 17.5 µM. Further, the GI50 was 36.6 µM in test [6] and 13 µM in test [9]. For the same compound, the TGI in [7] turned out to be 60.7 µM; in test [1], 34 µM; in test [10], 27.8 µM; in test [3], 55.2 µM; in test [4], 43.4 µM; in test [5], 33.7 µM. Further, the TGI in test [6] was more than 100 µM; in [9] it was 31.3 µM.

Take `CCN1C(=O)/C(=c2\sc3n(c2=O)C2C(NN=3)N(CC)C(=O)N2CC)c2ccccc21` (stereo unspecified): the GI50 in [7] was 0.199 µM; in test [1] it was 0.271 µM; in test [10] it was 0.859 µM; in [2], 0.907 µM; in [3], 5.48 µM; in [4] it was 0.82 µM. Also, the GI50 in test [5] was 0.808 µM; in [6] it was 0.577 µM; in test [9] it was 0.46 µM. The TGI in test [7] is 0.449 µM; in [1] it was 0.937 µM; in [10], more than 76.8 µM; in test [2], more than 100 µM; in [3], more than 100 µM; in test [4] it was more than 100 µM. Besides, the TGI in [5] was 17.6 µM; in [6], 30.1 µM; in test [9], more than 100 µM.

As to `OC1CC(O)O[C@H](c2ccccc2)C1` (stereo partly specified), the TGI in [1], in [10], in [2], in test [3], in [4] and in test [5] was more than 100 µM each time.

On to `CC(=O)OCc1nnn2c1C(OC(C)=O)CC2` (stereo unspecified), for which the TGI in test [1], in [10], in test [2], in test [3], in test [4] and in test [5] was more than 100 µM throughout. The same compound displayed a TGI in test [6] of more than 100 µM.

Consider `NNC(=O)/C(NC(=O)c1ccccc1)=C(\N)c1cccc([N+](=O)[O-])c1`, for which the TGI in test [1], in test [10], in test [2], in [3], in [4] and in [5] was more than 100 µM throughout. Besides, in test [6], the TGI was more than 100 µM.

For `CC(=O)[O-].CC(=O)[O-].O=C([CH-]C(=O)c1ccccc1)c1ccccc1.[Nd+3].[OH3+]`, the GI50 in test [1] was 31.6 µM; in [10], 25 µM; in [2], 23.3 µM; in [3], 27 µM; in test [4], 10.6 µM; in test [5], 18.7 µM. Further, the GI50 in test [6] is 16.7 µM. Further, the TGI in test [1] was 93.5 µM; in [10] it was more than 100 µM; in test [2] it was 81.2 µM; in test [3] it was more than 100 µM; in [4], more than 100 µM; in test [5] it was 57.7 µM. Besides, the TGI in test [6] was more than 100 µM.

With `Cc1[nH]c(=O)n2c(C)nnc2c1C(=O)O`, the TGI in test [1], in [2], in test [3], in test [4], in test [5] and in test [6] was more than 100 µM in each case.

Take `OC1(C(Sc2ccccc2)Sc2ccccc2)CCCCCC1`: the TGI is 64.9 µM in test [1]; more than 100 µM in [2]; more than 100 µM in [3]; more than 100 µM in [4]; more than 100 µM in test [5]; 66.2 µM in test [6].

In the case of `CC[O-].CC[O-].O=C1C=C([O-])C(=O)c2ccccc21.O=C1C=C([O-])C(=O)c2ccccc21.[Ti+4]`, the GI50 is 100 µM in [1]; 46.1 µM in test [10]; more than 100 µM in [2]; more than 100 µM in test [3]; more than 100 µM in test [4]; 4.43 µM in test [5]. In addition, the GI50 in [6] was more than 100 µM. For the same compound, the TGI in test [1], in test [10], in test [2], in test [3], in [4] and in test [5] was more than 100 µM throughout. For the same compound, the TGI in [6] was more than 100 µM.

On to `C/C=C1\Oc2ccc(OC)cc2S1(=O)=O`, for which the TGI in test [10], in test [2], in test [3], in test [4], in test [5] and in test [6] was more than 100 µM each time.

On to `O=C(O)C1=Cc2cccc3cccc(c23)C1=O`, for which the TGI in test [10], in [2], in test [3], in test [4], in [5] and in test [6] was more than 100 µM in each case.

With `C[C@@H](NC1CCCC[C@@H]1O)c1ccccc1` (stereo partly specified), the TGI in test [10], in [2], in test [3], in test [4] and in [6] was more than 100 µM throughout.

Turning to `CCN(N=O)C1C2(CCCC2)NC(=O)C12CCCC2` (stereo unspecified), the TGI in [1], in [10], in test [2], in test [3], in test [4] and in test [5] was more than 100 µM each time. The compound also showed a TGI in [6] of more than 100 µM.

In the case of `O=C(O)c1ccc(CSc2nc3ccccc3[nH]2)cc1`, the GI50 in [7], in test [1], in test [10], in test [2], in test [3] and in test [4] was more than 100 µM throughout. Besides, the GI50 in test [5], in test [6] and in [9] was more than 100 µM in each case. In addition, the TGI in test [7], in [1], in test [10], in test [2], in [3] and in [4] was more than 100 µM each time. For the same compound, the TGI in test [5], in test [6] and in test [9] was more than 100 µM each time.

Regarding `CCOC(=O)CCc1c(C)c2c(OC)cc(OC)cc2oc1=O`, the TGI in [1], in test [10], in test [2], in test [3], in [5] and in test [6] was more than 100 µM each time.

For `COc1cccc(C(=O)NNc2nc(Cl)nc(N3CCN(C(c4ccccc4)c4ccccc4)CC3)n2)c1`, the GI50 in test [7] is 3.96 µM; in [1], 2.08 µM; in test [10] it was 1.77 µM; in test [2], 2.21 µM; in test [3] it was 1.73 µM; in test [4], 2.36 µM. Also, the GI50 in [5] is 2.7 µM; in test [6], 1.78 µM; in test [8] it was more than 100 µM. The TGI in test [7] was found to be 14.2 µM; in test [1] it was 4.3 µM; in [10] it was 3.43 µM; in [2], 5.38 µM; in [3] it was 3.44 µM; in test [4], 7.54 µM. The TGI in [5] is 7.5 µM; in test [6] it was 3.51 µM; in test [8] it was more than 100 µM.

The values above are taken from PubChem BioAssay (NCI).
